Assay results from paper PMC9246714, “Characterization of inositol lipid metabolism in gut-associated Bacteroidetes” (Nature Microbiology, 2022).

T1: BT_1526 MIPS (Bacteroides thetaiotaomicron, UniProt Q8A7J8)
T1 construct: full-length wild-type ORF (synthetic gene), pET-28a, N-terminal His6 tag, E. coli BL21(DE3); HisTrap and Superdex S200; tetramer in crystal
T1 sequence (Q8A7J8 1-429): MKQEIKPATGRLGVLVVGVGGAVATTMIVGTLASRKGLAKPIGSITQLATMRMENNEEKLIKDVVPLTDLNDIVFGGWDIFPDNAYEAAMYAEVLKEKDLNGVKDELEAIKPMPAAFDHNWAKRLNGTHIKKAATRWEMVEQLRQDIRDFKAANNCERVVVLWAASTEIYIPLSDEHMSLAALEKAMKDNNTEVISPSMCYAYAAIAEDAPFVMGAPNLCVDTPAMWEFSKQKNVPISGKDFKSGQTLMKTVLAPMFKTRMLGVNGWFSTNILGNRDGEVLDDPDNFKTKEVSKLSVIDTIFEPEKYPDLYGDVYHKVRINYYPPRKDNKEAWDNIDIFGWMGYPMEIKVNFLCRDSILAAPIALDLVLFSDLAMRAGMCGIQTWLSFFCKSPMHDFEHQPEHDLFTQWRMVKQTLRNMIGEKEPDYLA

B1: BT_1526 myo-inositol phosphate synthase (MIPS) of Bacteroides thetaiotaomicron (enzyme, UniProt Q8A7J8 1-429, looked up)
chain: T1 sequence (Q8A7J8 1-429)
notes: myo-inositol phosphate synthase BT_1526 of Bacteroides thetaiotaomicron VPI-5482; synthetic gene encoding the BT_1526 open reading frame (wild type) in pET-28a; No cleavage of the His tag is described; also called BT_1526 MIPS; BT MIP synthase; source: E. coli BL21 (DE3), purified (HisTrap, Superdex S200 size-exclusion chromatography)

Legend:
[1] = molecular target: T1, BT_1526 MIPS; experiment: X-ray crystal structure, […] Å; settings: cofactor binding site; crystals grown at pH 6.5, 20 °C
[2] = molecular target: the molecule itself; experiment: crystal structure; sitting drop vapour diffusion, 20 °C; 200 mM sodium formate, 100 mM bis tris propane pH 6.5, 20% (w/v) PEG 3350; protein at 11.4 mg/ml; MIPS:NAD complex

| Molecule | X-ray crystal structure, 2.0 Å [1] | stoichiometry N [2] |
| --- | --- | --- |
| NC(=O)c1ccc[n+]([C@@H]2O[C@H](COP(=O)(O)OP(=O)(O)OC[C@H]3O[C@@H](n4cnc5c(N)ncnc54)[C@H](O)[C@@H]3O)[C@@H](O)[C@H]2O)c1 [NAD, NAD+] | the structure of the MIPS:NAD complex in the cofactor binding site | – |
| B1 | – | 4 |
